Data: US10689362B2, “Quinoxaline compounds as type III receptor tyrosine kinase inhibitors” (Development Center for Biotechnology, priority 2016, dated 2020)

Tests used:
FLT3 kinase = FLT3 kinase (Homo sapiens (Human), UniProt P36888); experiment: FLT3 kinase assay (radiometric); type: biochemical
Procedure, shortened: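 Recombinant FLT3 (5 ng) phosphorylating poly(Glu4:Tyr1) (2 μg) with 10 μM ATP plus [^33P]-ATP in MOPS pH 7.0 buffer, 4% DMSO final, 60 min at 30° C. Reaction stopped with phosphoric acid, filter-captured and scintillation-counted; IC50 derived from dose-response.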

[1] = test system: Kasumi-1 human acute myeloid leukemia cell with c-KIT N822K activating mutation; experiment: Kasumi-1 cell proliferation assay (CellTiter-96); type: cell-based; details: Cytotoxicity, Kasumi-1 cells, 72 hours
Procedure, shortened: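 After 72 h of treatment with a compound dilution series, growth of c-KIT N822K-driven Kasumi-1 cells (64000 per well, plated the day before) was read as 490 nm absorbance. This followed a 4 h incubation with CellTiter96 AQueous One reagent.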

CSF-1R kinase = CSF-1R kinase (Homo sapiens (Human), UniProt P07333); experiment: CSF-1R kinase assay (AlphaScreen); type: biochemical; details: class symbol
Chain of CSF-1R kinase (P07333 20-972): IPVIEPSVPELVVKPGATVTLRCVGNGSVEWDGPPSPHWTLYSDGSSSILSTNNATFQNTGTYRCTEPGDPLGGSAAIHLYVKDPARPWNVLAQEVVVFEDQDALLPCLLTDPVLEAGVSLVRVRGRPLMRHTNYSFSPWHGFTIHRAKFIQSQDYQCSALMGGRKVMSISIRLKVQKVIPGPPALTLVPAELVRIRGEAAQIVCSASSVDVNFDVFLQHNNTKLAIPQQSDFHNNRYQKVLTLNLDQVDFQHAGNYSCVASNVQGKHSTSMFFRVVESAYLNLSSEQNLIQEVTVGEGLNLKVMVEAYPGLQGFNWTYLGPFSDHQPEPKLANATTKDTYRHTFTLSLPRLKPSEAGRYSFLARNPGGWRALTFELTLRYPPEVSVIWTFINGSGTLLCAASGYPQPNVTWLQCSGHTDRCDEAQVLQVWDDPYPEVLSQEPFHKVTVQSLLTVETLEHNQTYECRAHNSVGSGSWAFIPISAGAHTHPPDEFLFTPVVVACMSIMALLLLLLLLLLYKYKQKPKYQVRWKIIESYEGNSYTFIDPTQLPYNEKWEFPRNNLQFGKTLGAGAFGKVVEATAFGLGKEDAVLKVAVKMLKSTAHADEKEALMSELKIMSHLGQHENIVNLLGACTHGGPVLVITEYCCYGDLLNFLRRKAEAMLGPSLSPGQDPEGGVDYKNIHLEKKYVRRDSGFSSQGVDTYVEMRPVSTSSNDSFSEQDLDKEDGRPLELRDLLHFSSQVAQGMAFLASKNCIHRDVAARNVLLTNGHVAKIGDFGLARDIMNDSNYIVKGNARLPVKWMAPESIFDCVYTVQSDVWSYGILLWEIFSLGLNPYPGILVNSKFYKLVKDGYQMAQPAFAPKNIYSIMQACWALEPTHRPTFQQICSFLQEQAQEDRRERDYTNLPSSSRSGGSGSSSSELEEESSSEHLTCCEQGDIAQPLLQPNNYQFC
Protocol: Inhibition of CSF-1R kinase activity by a test compound disclosed herein was estimated by AlphaScreen (PerkinElmer). […] Reactions were incubated at 30° C. for 45 min and stopped by adding 5 μL of 50 mM EDTA. Analysis of resulting product using an AlphaScreen kit, and counted with Enspire Alpha (PerkinElmer). […] The IC50 values of quinoxaline compounds of this invention against CSF-1R kinase were determined using the GraphPad Prism 5 software.

PDGFRβ kinase = PDGFRβ kinase (Homo sapiens (Human), UniProt P09619); experiment: PDGFRβ kinase assay (radiometric); type: biochemical
Chain of PDGFRβ kinase (P09619 33-1106): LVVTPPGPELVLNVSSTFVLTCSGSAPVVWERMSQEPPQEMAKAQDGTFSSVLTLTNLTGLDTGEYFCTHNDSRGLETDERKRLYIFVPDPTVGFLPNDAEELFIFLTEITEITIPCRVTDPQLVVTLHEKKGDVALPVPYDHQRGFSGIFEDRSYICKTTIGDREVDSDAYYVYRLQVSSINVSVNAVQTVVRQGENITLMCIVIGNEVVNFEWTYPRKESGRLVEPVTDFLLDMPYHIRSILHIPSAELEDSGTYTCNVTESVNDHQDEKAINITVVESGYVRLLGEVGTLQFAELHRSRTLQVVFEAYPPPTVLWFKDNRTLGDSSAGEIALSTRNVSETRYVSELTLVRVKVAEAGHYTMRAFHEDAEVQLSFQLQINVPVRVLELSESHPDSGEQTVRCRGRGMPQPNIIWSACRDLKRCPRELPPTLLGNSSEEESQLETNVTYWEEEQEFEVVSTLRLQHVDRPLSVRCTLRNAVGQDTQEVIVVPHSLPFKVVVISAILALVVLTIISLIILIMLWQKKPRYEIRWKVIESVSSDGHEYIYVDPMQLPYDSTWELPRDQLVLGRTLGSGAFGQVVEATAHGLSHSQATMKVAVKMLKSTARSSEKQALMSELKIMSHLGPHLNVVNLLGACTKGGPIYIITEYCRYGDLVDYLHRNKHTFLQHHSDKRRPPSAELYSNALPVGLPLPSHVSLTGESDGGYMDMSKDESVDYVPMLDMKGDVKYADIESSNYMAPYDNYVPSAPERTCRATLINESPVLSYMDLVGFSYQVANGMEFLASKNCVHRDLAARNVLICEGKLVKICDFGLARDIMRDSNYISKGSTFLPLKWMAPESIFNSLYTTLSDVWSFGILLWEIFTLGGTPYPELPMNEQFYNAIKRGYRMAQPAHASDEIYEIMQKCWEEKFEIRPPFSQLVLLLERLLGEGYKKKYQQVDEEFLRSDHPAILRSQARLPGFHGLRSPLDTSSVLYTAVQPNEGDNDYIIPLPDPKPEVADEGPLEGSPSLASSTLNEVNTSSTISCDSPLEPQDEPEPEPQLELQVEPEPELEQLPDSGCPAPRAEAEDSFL
Procedure, shortened: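 Radiometric assay: recombinant PDGFRβ with poly(Glu4:Tyr1) in MOPS pH 7.0 buffer containing Mg2+/Mn2+, 10 μM ATP plus [33P]-ATP, and compound at 4% DMSO final. Incubated 60 min at 30° C, stopped with phosphoric acid, filter-captured and scintillation-counted. IC50 from curve fitting.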

[2] = test system: CSF-1-dependent M-NFS-60 mouse myeloid leukemia cell; experiment: M-NFS-60 cell proliferation assay (CellTiter-96); type: cell-based; details: Cytotoxicity, M-NFS-60 cells, 72 hours
Procedure, shortened: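 Growth inhibition was measured as absorbance at 490 nm after 4 h with CellTiter 96 AQueous One reagent. Beforehand, M-NFS-60 cells (2000/well, CSF-1-dependent) were treated with a compound dilution series for 72 h following overnight plating at 37 °C, 5% CO2.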

c-KIT kinase = c-KIT kinase (Homo sapiens (Human), UniProt P10721); experiment: c-KIT kinase assay (radiometric); type: biochemical; details: class symbol
Chain of c-KIT kinase (P10721 26-976): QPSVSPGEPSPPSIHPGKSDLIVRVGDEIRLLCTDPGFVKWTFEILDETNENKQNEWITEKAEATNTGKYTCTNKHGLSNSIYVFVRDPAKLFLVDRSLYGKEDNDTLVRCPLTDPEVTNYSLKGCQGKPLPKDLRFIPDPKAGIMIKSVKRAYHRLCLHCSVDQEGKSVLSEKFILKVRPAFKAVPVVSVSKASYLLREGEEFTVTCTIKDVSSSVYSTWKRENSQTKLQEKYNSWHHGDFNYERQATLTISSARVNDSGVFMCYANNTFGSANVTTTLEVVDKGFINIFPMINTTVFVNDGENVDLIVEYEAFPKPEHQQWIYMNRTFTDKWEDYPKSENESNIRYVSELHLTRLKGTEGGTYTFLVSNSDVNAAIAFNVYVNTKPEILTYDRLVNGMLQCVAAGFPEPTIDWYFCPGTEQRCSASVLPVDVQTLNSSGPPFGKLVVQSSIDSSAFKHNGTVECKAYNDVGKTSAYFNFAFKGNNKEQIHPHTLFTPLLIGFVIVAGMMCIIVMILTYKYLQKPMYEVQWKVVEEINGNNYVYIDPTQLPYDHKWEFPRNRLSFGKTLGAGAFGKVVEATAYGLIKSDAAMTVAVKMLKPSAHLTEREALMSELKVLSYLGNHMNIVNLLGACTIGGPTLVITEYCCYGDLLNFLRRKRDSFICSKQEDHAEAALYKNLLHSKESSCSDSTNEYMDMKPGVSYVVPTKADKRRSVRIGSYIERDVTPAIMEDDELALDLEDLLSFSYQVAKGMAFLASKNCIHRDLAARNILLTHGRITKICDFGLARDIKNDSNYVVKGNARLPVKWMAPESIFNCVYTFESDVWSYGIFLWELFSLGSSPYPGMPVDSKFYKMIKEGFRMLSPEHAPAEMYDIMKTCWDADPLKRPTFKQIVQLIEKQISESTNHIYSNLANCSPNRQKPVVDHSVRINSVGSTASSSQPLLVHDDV
Procedure, shortened: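 Recombinant c-Kit (20 ng) with 2 μg Poly-(Glu4:Tyr1) in MOPS pH 7.0 buffer with MgCl2/MnCl2, 10 μM ATP plus [^33P]-ATP, 4% DMSO final, 60 min at 30° C. Stopped with phosphoric acid, filter-captured and scintillation counted; IC50 from curve fit.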

[3] = test system: MV4-11 human acute myeloid leukemia cell with FLT3-ITD mutation; experiment: MV4-11 cell proliferation assay (CellTiter-96); type: cell-based; details: Cytotoxicity, MV4-11 cells, 72 hours
Procedure, shortened: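 Growth inhibition read as absorbance at 490 nm after 4 hours with CellTiter96 AQueous One reagent. Before that, FLT3-ITD-dependent MV4-11 cells (6500 cells/well, overnight at 37° C., 5% CO2) received a rising compound concentration series for 72 hours.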

[4] = test system: osteoclast precursors (osteoclast differentiation); experiment: Osteoclast tartrate-resistant acid phosphatase assay; type: cell-based; details: 168 h, at 1 μM treatment, 7 days, RANKL and M-CSF, read-out: inhibition activity against osteoclast differentiation
Procedure, shortened: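 Differentiation inhibition was scored at 1 μM compound in duplicate, using supernatant TRAP activity read at 550 nm with an acid phosphatase kit.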

[5] = test system: THP-1 human acute monocytic leukemia cell harboring NRAS G12D mutation; experiment: THP-1 cell proliferation assay (counter screen, CellTiter-96); type: cell-based; details: Cytotoxicity, THP-1 cells (counter screen), 72 hours
Procedure, shortened: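 Growth inhibition read as 490 nm absorbance after 4 h with CellTiter96 AQueous One reagent, following 72 h compound exposure at rising concentrations. THP-1 (NRAS G12D) cells plated at 5000 per well and left overnight at 37 °C, 5% CO2 before dosing.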

Chain of FLT3 kinase (P36888 27-993): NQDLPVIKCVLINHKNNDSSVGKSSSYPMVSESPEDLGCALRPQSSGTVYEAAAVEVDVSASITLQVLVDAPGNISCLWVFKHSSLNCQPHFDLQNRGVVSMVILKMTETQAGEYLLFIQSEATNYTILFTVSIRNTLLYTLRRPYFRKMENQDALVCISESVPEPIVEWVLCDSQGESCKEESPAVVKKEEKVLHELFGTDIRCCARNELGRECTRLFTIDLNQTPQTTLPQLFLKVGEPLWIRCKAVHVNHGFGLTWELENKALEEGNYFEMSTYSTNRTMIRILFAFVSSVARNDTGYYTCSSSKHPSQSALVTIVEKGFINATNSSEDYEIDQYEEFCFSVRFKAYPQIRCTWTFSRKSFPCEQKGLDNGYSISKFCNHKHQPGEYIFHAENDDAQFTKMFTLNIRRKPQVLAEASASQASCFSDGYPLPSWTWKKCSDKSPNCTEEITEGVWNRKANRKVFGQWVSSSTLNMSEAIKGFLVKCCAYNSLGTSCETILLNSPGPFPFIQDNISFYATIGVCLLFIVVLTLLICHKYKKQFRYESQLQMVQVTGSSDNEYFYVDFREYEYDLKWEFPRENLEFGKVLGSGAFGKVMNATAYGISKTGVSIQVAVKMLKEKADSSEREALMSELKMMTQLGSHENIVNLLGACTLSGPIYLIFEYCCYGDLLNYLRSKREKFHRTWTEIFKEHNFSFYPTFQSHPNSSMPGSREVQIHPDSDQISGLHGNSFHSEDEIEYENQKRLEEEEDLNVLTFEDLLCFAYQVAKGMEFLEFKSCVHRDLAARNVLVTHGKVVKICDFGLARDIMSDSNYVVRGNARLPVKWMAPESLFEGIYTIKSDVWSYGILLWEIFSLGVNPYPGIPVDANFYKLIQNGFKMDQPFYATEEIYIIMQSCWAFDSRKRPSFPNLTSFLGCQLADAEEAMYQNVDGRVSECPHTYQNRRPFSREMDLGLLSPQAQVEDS

COc1cc(Nc2ccc3ncc(N4CCOCC4)nc3c2C#N)ccc1OCc1ccc2c(c1)CCO2 [Example 45, 6-((4-((2,3-dihydrobenzofuran-5-yl)methoxy)-3-methoxyphenyl)amino)-3-morpholinoquinoxaline-5-carbonitrile]
IC50 (FLT3 kinase; bound): > 1000 nM | IC50 [1]: 300 to 1000 nM | IC50 (CSF-1R kinase): < 100 nM | IC50 (PDGFRβ kinase; bound): > 1000 nM | IC50 [2]: < 300 nM | IC50 (c-KIT kinase): < 100 nM | IC50 [3]: > 10000 nM | inhibition at 1 µM [4]: > 50% | IC50 [5]: > 10000 nM

COc1ccc(COc2ccc(Nc3ccc4ncc(NCCN5CCOCC5)nc4c3C#N)cc2OC)cc1 [Example 76, 6-((3-methoxy-4-((4-methoxybenzyl)oxy)phenyl)amino)-3-((2-morpholinoethyl)amino)quinoxaline-5-carbonitrile]
IC50 (FLT3 kinase; bound): > 1000 nM | IC50 [1]: 1000 to 10000 nM | IC50 (CSF-1R kinase): < 100 nM | IC50 (PDGFRβ kinase; bound): > 1000 nM | IC50 [2]: < 300 nM | IC50 (c-KIT kinase): 300 to 1000 nM | IC50 [3]: 1000 to 10000 nM | inhibition at 1 µM [4]: > 50% | IC50 [5]: > 10000 nM

COc1cc(N(C)c2ccc3ncc(N4CCOCC4)nc3c2C#N)ccc1OCc1ccc(C2CC2)nc1 [Example 130, 6-((4-((6-cyclopropylpyridin-3-yl)methoxy)-3-methoxyphenyl)(methyl)amino)-3-morpholinoquinoxaline-5-carbonitrile]
IC50 (FLT3 kinase; bound): > 1000 nM | IC50 [1]: 300 to 1000 nM | IC50 (CSF-1R kinase): < 100 nM | IC50 (PDGFRβ kinase; bound): > 1000 nM | IC50 [2]: < 300 nM | IC50 (c-KIT kinase): < 100 nM | IC50 [3]: 1000 to 10000 nM | inhibition at 1 µM [4]: > 50% | IC50 [5]: > 10000 nM

COCCN1CCN(c2cnc3ccc(Nc4ccc(OCc5ccc(OC)nc5)c(OC)c4)c(C#N)c3n2)CC1 [Example 97, 6-((3-methoxy-4-((6-methoxypyridin-3-yl)methoxy)phenyl)amino)-3-(4-(2-methoxyethyl)piperazin-1-yl)quinoxaline-5-carbonitrile]
IC50 (FLT3 kinase; bound): > 1000 nM | IC50 [1]: 300 to 1000 nM | IC50 (CSF-1R kinase): < 100 nM | IC50 (PDGFRβ kinase; bound): > 1000 nM | IC50 [2]: < 300 nM | IC50 (c-KIT kinase): 100 to 300 nM | IC50 [3]: 1000 to 10000 nM | inhibition at 1 µM [4]: > 50% | IC50 [5]: > 10000 nM

COc1ccc(COc2ccc(Nc3ccc4ncc(N5CCC(N(C)C)CC5)nc4c3C#N)cc2OC)cn1 [Example 82, 3-(4-(dimethylamino)piperidin-1-yl)-6-((3-methoxy-4-((6-methoxy-pyridin-3-yl)methoxy)phenyl)amino)quinoxaline-5-carbonitrile]
IC50 (FLT3 kinase; bound): > 1000 nM | IC50 [1]: < 300 nM | IC50 (CSF-1R kinase): < 100 nM | IC50 (PDGFRβ kinase; bound): > 1000 nM | IC50 [2]: < 300 nM | IC50 (c-KIT kinase): 100 to 300 nM | IC50 [3]: 1000 to 10000 nM | inhibition at 1 µM [4]: > 50% | IC50 [5]: 1000 to 10000 nM

COc1ccc(COc2ccc(Nc3ccc4ncc(N5CCC(OC(C)=O)CC5)nc4c3C#N)cc2OC)cc1 [Example 68, 1-(8-cyano-7-((3-methoxy-4-((4-methoxybenzyl)oxy)phenyl)amino)quinoxalin-2-yl)piperidin-4-yl acetate]
IC50 (FLT3 kinase; bound): > 1000 nM | IC50 [1]: < 300 nM | IC50 (CSF-1R kinase): < 100 nM | IC50 (PDGFRβ kinase; bound): > 1000 nM | IC50 [2]: < 300 nM | IC50 (c-KIT kinase): < 100 nM | IC50 [3]: 1000 to 10000 nM | inhibition at 1 µM [4]: > 50% | IC50 [5]: > 10000 nM

COc1ccc(COc2ccc(Nc3ccc4ncc(N5CCOCC5)nc4c3C#N)cc2)cc1 [Example 38, 6-((4-((4-methoxybenzyl)oxy)phenyl)amino)-3-morpholinoquinoxaline-5-carbonitrile]
IC50 (FLT3 kinase; class symbol): 100 to 300 nM | IC50 [1]: 300 to 1000 nM | IC50 (CSF-1R kinase): < 100 nM | IC50 (PDGFRβ kinase; class symbol): 100 to 300 nM | IC50 [2]: < 300 nM | IC50 (c-KIT kinase): < 100 nM | IC50 [3]: < 300 nM | inhibition at 1 µM [4]: > 50% | IC50 [5]: > 10000 nM

COc1ccc(COc2ccc(Nc3ccc4ncc(N5CCOCC5)nc4c3C#N)cc2OC)nc1 [Example 132, 6-((3-methoxy-4-((5-methoxypyridin-2-yl)methoxy)phenyl)amino)-3-morpholinoquinoxaline-5-carbonitrile]
IC50 (FLT3 kinase; bound): > 1000 nM | IC50 [1]: > 10000 nM | IC50 (CSF-1R kinase): < 100 nM | IC50 (PDGFRβ kinase; bound): > 1000 nM | IC50 [2]: 300 to 1000 nM | IC50 (c-KIT kinase): 300 to 1000 nM | IC50 [3]: > 10000 nM | inhibition at 1 µM [4]: > 50% | IC50 [5]: > 10000 nM
